Experimental data as given in PMC12598616, “Design and optimization of caspase-1-responsive fluorescent probes for pyroptosis imaging and anti-pyroptosis drug screening” (Chemical Science, 2025).

Tests used:
[1] = system: activated Cas-1 in primary peritoneal macrophages; assay: High-content screening / fluorescence imaging for caspase-1 modulators in primary peritoneal macrophages; assay type: cell-based, mouse; settings: natural product 10 μM with Nig 10 μM 2 h after LPS 4 h; FPy1 5 μM
Description: The efficient and rapid discovery of Cas-1 modulators is of significant importance considering the therapeutic potential of Cas-1 in various diseases.[39,40] Therefore, we employed FPy1 to construct a high-content screening system aimed at identifying Cas-1 modulators. The level of activated Cas-1 in cells is influenced by multiple factors. To reduce the impact of factors that affect Cas-1 activation in cells, we utilized the NLRP3 inflammasome-mediated Cas-1 activation model, administering the drug during the second stage where the zymogen was converted into activated Cas-1. MCC950, a selective NLRP3 inflammasome inhibitor that could suppress Cas-1 activation, was selected as the positive drug.[41] […] To validate the efficacy of the Cas-1 modulator screening system (Fig. 6a), we first observed the fluorescence images of PMs stained with FPy1 (5 μM) in the control group, model group, and positive drug group. […] Subsequently, the impact of 25 natural products (10 μM) on activated Cas-1 were studied using high-content analysis (Fig. S20). […] To determine whether deoxyshikonin directly binds to Cas-1 and inhibits its activity, we conducted fluorescence detection following co-incubation of deoxyshikonin, FPy1 and Cas-1. […]
Harvested rat discs were fixed in 4 % buffered paraformaldehyde for 24 hours, decalcified in 10 % ethylenediaminetetraacetic acid (EDTA, Solarbio, E8030) solution for 1 month, embedded in paraffin, and sectioned at a thickness of 5 μm. […] Stained sections were evaluated by three independent raters, blinded to the research protocol, and measurements were averaged for statistical analysis. […]
In vivo fluorescence imaging of intervertebral disc degeneration
Twelve rats were modeled with needle puncture-induced intervertebral disc degeneration at the Co5/6, Co6/7 and Co 7/8 levels. […] In vivo fluorescence images were acquired using an in vivo Imaging System (PerkinElmer). […]
In vivo fluorescence imaging of osteoarthritis […]

[2] = system: Cas-1; assay: Fluorescence detection after co-incubation of deoxyshikonin, FPy1 and Cas-1; assay type: biochemical, human
Description: The efficient and rapid discovery of Cas-1 modulators is of significant importance considering the therapeutic potential of Cas-1 in various diseases.[39,40] Therefore, we employed FPy1 to construct a high-content screening system aimed at identifying Cas-1 modulators. The level of activated Cas-1 in cells is influenced by multiple factors. To reduce the impact of factors that affect Cas-1 activation in cells, we utilized the NLRP3 inflammasome-mediated Cas-1 activation model, administering the drug during the second stage where the zymogen was converted into activated Cas-1. MCC950, a selective NLRP3 inflammasome inhibitor that could suppress Cas-1 activation, was selected as the positive drug.[41] […] To validate the efficacy of the Cas-1 modulator screening system (Fig. 6a), we first observed the fluorescence images of PMs stained with FPy1 (5 μM) in the control group, model group, and positive drug group. […] Subsequently, the impact of 25 natural products (10 μM) on activated Cas-1 were studied using high-content analysis (Fig. S20). […] To determine whether deoxyshikonin directly binds to Cas-1 and inhibits its activity, we conducted fluorescence detection following co-incubation of deoxyshikonin, FPy1 and Cas-1. […] Overall, FPy1 could serve as an effective tool for the rapid identification of lead compounds that modulate Cas-1 activity within a high-content analysis platform. […]

[3] = system: cleaved Cas-1; assay: Western blot of cleaved Cas-1; assay type: cell-based; settings: control and treated groups

CC(C)=CCCC1=CC(=O)c2c(O)ccc(O)c2C1=O [deoxyshikonin]
fluorescence intensity of FPy1 relative to model group, high-content analysis [1]: significant reduction in fluorescence intensity compared to the model group
fluorescence at 585 nm in presence of compound (direct Cas-1 inhibition) [2]: the fluorescence at 585 nm was lower in the presence of deoxyshikonin
activated Cas-1 level (Western blot) [3]: significantly inhibit the activation of Cas-1, reducing activated Cas-1 levels
